Data on 27 molecules can be found in patent US20080221086A1, “Novel Inhibitors of Glutaminyl Cyclase” (PROBIODRUG AG, priority 2006, published 2008).

This assay deals with hQC (Homo sapiens, UniProt Q16769). The assay can be described thus: Fluorometric assay of glutaminyl cyclase (QC) inhibition, H-Gln-βNA or H-Gln-AMC substrate. Type of assay: biochemical. The conditions noted are these: read-out: IC50. Summed up: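 Ki values were obtained by fitting progress curves to a competitive-inhibition equation, and the rapid screen used 4 mM inhibitor with substrate at 1 KM. Both readouts coupled pyroglutamyl aminopeptidase at pH 8.0 and 30° C: H-Gln-βNA at 0.2 mM (ex/em 320/410 nm) or H-Gln-AMC (380/460 nm).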
Sequence of hQC (Q16769 29-361): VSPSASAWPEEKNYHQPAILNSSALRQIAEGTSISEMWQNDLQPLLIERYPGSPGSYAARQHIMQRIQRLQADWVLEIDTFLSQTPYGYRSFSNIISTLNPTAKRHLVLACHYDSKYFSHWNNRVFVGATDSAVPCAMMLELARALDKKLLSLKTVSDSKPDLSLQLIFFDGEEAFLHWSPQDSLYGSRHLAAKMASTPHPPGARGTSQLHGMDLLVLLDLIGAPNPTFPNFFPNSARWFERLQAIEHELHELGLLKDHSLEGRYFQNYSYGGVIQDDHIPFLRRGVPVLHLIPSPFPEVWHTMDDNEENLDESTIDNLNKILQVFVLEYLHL
In general, IC50 refers to the point on the concentration scale where inhibition reaches its midpoint. Consider `CCC1/C(=N\CC(=O)N2CCc3ccccc3C2)NC(=O)N1CCCn1ccnc1` (stereo not drawn) [Compound 75, 4-2-(3,4-Dihydro-1H-isoquinolin-2-yl)-2-oxo-ethylimino-5-ethyl-1-(3-imidazol-1-yl-propyl)-imidazolidin-2-one], for which the IC50 amounted to 7.6 µM.

With `O=C(C/N=C1\NC(=O)N(CCCn2ccnc2)C1c1ccccc1F)N1CCc2ccccc2C1` (stereo not drawn) [Compound 76, 4-2-(3,4-Dihydro-1H-isoquinolin-2-yl)-2-oxo-ethylimino-5-(2-fluoro-phenyl)-1-(3-imidazol-1-yl-propyl)-imidazolidin-2-one], the IC50 worked out at 5.8 µM.

`O=C(C/N=C1/NC(=O)N(CCCn2ccnc2)C1c1cccc(F)c1)N1CCc2ccccc2C1` (stereo not drawn) [Compound 77, 4-2-(3,4-Dihydro-1H-isoquinolin-2-yl)-2-oxo-ethylimino-5-(3-fluoro-phenyl)-1-(3-imidazol-1-yl-propyl)-imidazolidin-2-one]: the half-inhibitory concentration (IC50) is 4 µM.

As for `O=C(C/N=C1/NC(=O)N(CCCn2ccnc2)C1c1ccc(F)cc1)N1CCc2ccccc2C1` (stereo not drawn) [Compound 78, 4-2-(3,4-Dihydro-1H-isoquinolin-2-yl)-2-oxo-ethylimino-5-(4-fluoro-phenyl)-1-(3-imidazol-1-yl-propyl)-imidazolidin-2-one], the IC50 is 3.1 µM.

Consider `O=C(C/N=C1/NC(=O)N(CCCn2ccnc2)C1c1ccc(O)cc1)N1CCc2ccccc2C1` (stereo not drawn) [Compound 79, 4-2-(3,4-Dihydro-1H-isoquinolin-2-yl)-2-oxo-ethylimino-5-(4-hydroxy-phenyl)-1-(3-imidazol-1-yl-propyl)-imidazolidin-2-one], for which the IC50 came to 3.1 µM.

For the molecule `CC1/C(=N/C(c2ccccc2)c2ccccc2)NC(=O)N1CCCn1ccnc1` (stereo not drawn) [Compound 80, 4-Benzhydrylimino-1-(3-imidazol-1-yl-propyl)-5-methyl-imidazolidin-2-one], the IC50 came to 9.4 µM.

Take `O=C1N/C(=N\C(c2ccccc2)c2ccccc2)C(c2ccccc2)N1CCCn1ccnc1` (stereo not drawn) [Compound 81, 4-Benzhydrylimino-1-(3-imidazol-1-yl-propyl)-5-phenyl-imidazolidin-2-one]: the IC50 stood at 5.8 µM.

Turning to `O=C1N/C(=N\C(c2ccccc2)c2ccccc2)C(C2CCC=CO2)N1CCCn1ccnc1` (stereo not drawn) [Compound 82, 4-Benzhydrylimino-5-(3,4-dihydro-2H-pyran-2-yl)-1-(3-imidazol-1-yl-propyl)-imidazolidin-2-one], the IC50 was determined as 9.4 µM.

For `O=C1N/C(=N\C(c2ccccc2)c2ccccc2)C(c2cccc(F)c2F)N1CCCn1ccnc1` (stereo not drawn) [Compound 83, 4-Benzhydrylimino-5-(2,3-difluoro-phenyl)-1-(3-imidazol-1-yl-propyl)-imidazolidin-2-one], the IC50 turned out to be 7.6 µM.

In the case of `O=C1N/C(=N\C(c2ccccc2)c2ccccc2)C(c2cc(F)cc(F)c2)N1CCCn1ccnc1` (stereo not drawn) [Compound 84, 4-Benzhydrylimino-5-(3,5-difluoro-phenyl)-1-(3-imidazol-1-yl-propyl)-imidazolidin-2-one], the IC50 turned out to be 3.1 µM.

Regarding `O=C1N/C(=N\C(c2ccccc2)c2ccccc2)C(CO)N1CCCn1ccnc1` (stereo not drawn) [Compound 85, 4-Benzhydrylimino-5-hydroxymethyl-1-(3-imidazol-1-yl-propyl)-imidazolidin-2-one], the IC50 was 6.7 µM.

On to `CCCCC1/C(=N/C(c2ccccc2)c2ccccc2)NC(=O)N1CCCn1ccnc1` (stereo not drawn) [Compound 86, 4-Benzhydrylimino-5-butyl-1-(3-imidazol-1-yl-propyl)-imidazolidin-2-one], for which the IC50 came out at 5.8 µM.

On to `O=C1N/C(=N\C(c2ccccc2)c2ccccc2)C(c2ccccc2F)N1CCCn1ccnc1` (stereo not drawn) [Compound 87, 4-Benzhydrylimino-5-(2-fluoro-phenyl)-1-(3-imidazol-1-yl-propyl)-imidazolidin-2-one], for which the IC50 amounted to 4 µM.

On to `O=C1N/C(=N\C(c2ccccc2)c2ccccc2)C(c2cccc(F)c2)N1CCCn1ccnc1` (stereo not drawn) [Compound 88, 4-Benzhydrylimino-5-(3-fluoro-phenyl)-1-(3-imidazol-1-yl-propyl)-imidazolidin-2-one], for which the IC50 was found to be 5.8 µM.

On to `O=C1N/C(=N\C(c2ccccc2)c2ccccc2)C(c2ccc(O)cc2)N1CCCn1ccnc1` (stereo not drawn) [Compound 89, 4-Benzhydrylimino-5-(4-hydroxy-phenyl)-1-(3-imidazol-1-yl-propyl)-imidazolidin-2-one], for which the IC50 turned out to be 9.4 µM.

Take `O=C1N/C(=N/Cc2cccnc2)C(c2cc(F)cc(F)c2)N1CCCn1ccnc1` (stereo not drawn) [Compound 90, 5-(3,5-Difluoro-phenyl)-1-(3-imidazol-1-yl-propyl)-4-pyridin-3-ylmethylimino-imidazolidin-2-one]: the IC50 was 8.5 µM.

On to `O=C1N/C(=N/Cc2cccnc2)C(c2cccc(F)c2)N1CCCn1ccnc1` (stereo not drawn) [Compound 91, 5-(3-Fluoro-phenyl)-1-(3-imidazol-1-yl-propyl)-4-pyridin-3-ylmethylimino-imidazolidin-2-one], for which the IC50 came to 8.5 µM.

For `O=C1N/C(=N/Cc2ccccc2)C(c2ccccc2)N1CCCn1ccnc1` (stereo not drawn) [Compound 92, 4-Benzylimino-1-(3-imidazol-1-yl-propyl)-5-phenyl-imidazolidin-2-one], the IC50 turned out to be 8.5 µM.

Consider `O=C1N/C(=N/Cc2ccccc2)C(c2ccc[nH]2)N1CCCn1ccnc1` (stereo not drawn) [Compound 93, 4-Benzylimino-1-(3-imidazol-1-yl-propyl)-5-(1H-pyrrol-2-yl)-imidazolidin-2-one], for which the IC50 was found to be 9.4 µM.

On to `O=C1N/C(=N\Cc2ccccc2)C(c2cccc(F)c2F)N1CCCn1ccnc1` (stereo not drawn) [Compound 94, 4-Benzylimino-5-(2,3-difluoro-phenyl)-1-(3-imidazol-1-yl-propyl)-imidazolidin-2-one], for which the IC50 stood at 5.8 µM.

In the case of `O=C1N/C(=N/Cc2ccccc2)C(c2cc(F)cc(F)c2)N1CCCn1ccnc1` (stereo not drawn) [Compound 95, 4-Benzylimino-5-(3,5-difluoro-phenyl)-1-(3-imidazol-1-yl-propyl)-imidazolidin-2-one], the IC50 was 5.8 µM.

For `O=C1N/C(=N/Cc2ccccc2)C(c2ccc(Cl)c(F)c2)N1CCCn1ccnc1` (stereo not drawn) [Compound 96, 4-Benzylimino-5-(4-chloro-3-fluoro-phenyl)-1-(3-imidazol-1-yl-propyl)-imidazolidin-2-one], the IC50 was determined as 6.7 µM.

Regarding `O=C1N/C(=N\Cc2ccccc2)C(c2ccccc2Cl)N1CCCn1ccnc1` (stereo not drawn) [Compound 97, 4-Benzylimino-5-(2-chloro-phenyl)-1-(3-imidazol-1-yl-propyl)-imidazolidin-2-one], the IC50 is 4 µM.

For `O=C1N/C(=N\Cc2ccccc2)C(c2ccccc2F)N1CCCn1ccnc1` (stereo not drawn) [Compound 98, 4-Benzylimino-5-(2-fluoro-phenyl)-1-(3-imidazol-1-yl-propyl)-imidazolidin-2-one], the IC50 stood at 5.8 µM.

As to `O=C1N/C(=N/Cc2ccccc2)C(c2ccc(O)cc2)N1CCCn1ccnc1` (stereo not drawn) [Compound 99, 4-Benzylimino-5-(4-hydroxy-phenyl)-1-(3-imidazol-1-yl-propyl)-imidazolidin-2-one], the IC50 was 6.7 µM.

`O=C1N/C(=N\c2ccc(Oc3ccccc3)cc2)C(C2CCC=CO2)N1CCCn1ccnc1` (stereo not drawn) [Compound 100, 5-(3,4-Dihydro-2H-pyran-2-yl)-1-(3-imidazol-1-yl-propyl)-4-4-phenoxy-phenylimino-imidazolidin-2-one]: the IC50 came out at 4.9 µM.

For `O=C1N/C(=N\c2ccc(Oc3ccccc3)cc2)C(c2ccc(Cl)c(F)c2)N1CCCn1ccnc1` (stereo not drawn) [Compound 101, 5-(4-Chloro-3-fluoro-phenyl)-1-(3-imidazol-1-yl-propyl)-4-4-phenoxy-phenylimino-imidazolidin-2-one], the IC50 was found to be 7.6 µM.
